Holding throughout (type): physicochemical
A short description of data set [1]: Water content / hygroscopicity of crystal modification 1 versus relative humidity. The source says: Crystal modification 1 of odevixibat cannot only be obtained from a mixture of water and ethanol, as described above, but also from a slurry of odevixibat in a mixture of water and an organic solvent selected from the group consisting of methanol, 2-propanol, acetone, acetonitrile, 1,4-dioxane, DMF and DMSO. Upon drying of the different mixed solvates obtained under these conditions (crystal modification 2), the same crystalline hydrate of odevixibat is obtained, namely crystal modification 1. Crystal modification 1 contains void volumes that are capable of containing up to about 2 moles of water associated with the crystal per mole of odevixibat, depending on the relative humidity. This form is therefore formally a channel hydrate. At about 30% relative humidity, however, crystal modification 1 contains a substantially stoichiometric amount of about 1.5 moles of water per mole of organic compound and is thus a sesquihydrate. The substantially stoichiometric amount of water is considered advantageous, as the water content of the crystals remains substantially constant even with humidity changes within the normal relative humidity range of about 30% to about 70% RH.
Whereas crystal modification 1 is a sesquihydrate containing about 3.5% (w/w) water at about 30% relative humidity (based on the total crystal weight), it has been observed that the crystal can take up an additional 1.5% (w/w) water when the humidity is increased up to 95% RH. The sorption and desorption of this additional water is fully reversible. The additional water may be adsorbed on the surface or may further fill the channels of the structure. In some embodiments, the term “overhydrated” refers to crystal modification 1 containing from about 1.5 to about 4 moles of water per mole of odevixibat, such as from about 1.5 to about 3.5, or such as from about 1.5 to 3, or such as from about 1.5 to about 2.5, or such as from about 1.5 to about 2 moles of water per mole of odevixibat. In some embodiments, the term “overhydrated” refers to crystal modification 1 containing from about 2 to about 4 moles of water per mole of odevixibat, such as from about 2 to about 3.5, or such as from about 2 to about 3, or such as from about 2 to 2.5 moles of water per mole of odevixibat.

Data set [2] in a line: Solubility of odevixibat in water. The conditions noted are these: pH 7, 37° C. From the text: It is desirable that the use of organic solvents in the preparation of the formulation is avoided. In some embodiments, water is used as the solvent for the preparation of the formulation. […] Because of this low solubility in water, aqueous suspensions of odevixibat can contain larger agglomerates of odevixibat, which may lead to an uneven distribution of the active pharmaceutical ingredient on the cores, i.e. the cores may contain different amounts of odevixibat, which in turn impacts dose uniformity. Accordingly, in some embodiments, the aqueous suspension of odevixibat is homogeneous. In some embodiments, a homogeneous aqueous suspension of odevixibat is sprayed onto the cores.

A short description of data set [3]: Particle size distribution of crystalline odevixibat drug substance. The conditions noted are these: typical value, crystalline material. From the text:
Crystalline odevixibat was used. Typical values for the particle size distribution of the crystalline material were d10=0.9 μm, d50=4 μm and d90=20 μm, wherein d10, d50 and d90 are defined as the diameters where 10%, 50% and 90%, respectively, of the particle population lies below these values. […]

Converted amounts (≈) assume the structure as drawn.

Regarding `CCCCC1(CCCC)CN(c2ccccc2)c2cc(SC)c(OCC(=O)N[C@@H](C(=O)N[C@@H](CC)C(=O)O)c3ccc(O)cc3)cc2S(=O)(=O)N1` [crystal modification 1], in data set [1] (about 30% relative humidity), the water content entry was “about 1.5 moles of water per mole of organic compound”. The “water content of crystal” value in data set [1] (about 30% relative humidity, based on total crystal weight) is listed as “about 3.5 % (w/w)”. Further, in data set [1] (between about 30 and about 70% RH), the hygroscopicity result is recorded as “relatively low hygroscopicity”. For the same compound, the “additional water taken up” value in data set [1] (humidity increased up to 95% RH, fully reversible) is given as 1.5 % (w/w).
In turn, `CCCCC1(CCCC)CN(c2ccccc2)c2cc(SC)c(OCC(=O)N[C@@H](C(=O)N[C@@H](CC)C(=O)O)c3ccc(O)cc3)cc2S(=O)(=O)N1` [odevixibat, 1,1-dioxo-3,3-dibutyl-5-phenyl-7-methylthio-8-(N—{(R)-α-[N—((S)-1-carboxypropyl)carbamoyl]-4-hydroxybenzyl}carbamoylmethoxy)-2,3,4,5-tetrahydro-1,2,5-benzothiadiazepine] returned a solubility in data set [2] of approximately 30 µg/mL (≈ 40.5 µM). Also, in data set [3], the “particle size distribution d10” value turned out to be 0.9 μm, the “particle size distribution d50” value is on record as 4 μm and the “particle size distribution d90” value amounted to 20 μm.

The record behind these values is US11801226B2, “Pharmaceutical formulation of odevixibat” (Albireo AB, priority 2018, dated 2023).
